“And” between values parts separate entries of the source, which are not always exact repeats. Equal entries are not always repeated.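 GI50 is the concentration that inhibits growth by half. TGI is the concentration that stops growth completely.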
Experiments:
Test in all cases: DTP human tumour cell line panel, 384-well format; in the data active means GI50 below about 0.43 µM; inactive means the rest
786-0 renal = tested on: 786-0 renal
A498 renal = tested on: A498 renal
A549 NSCLC = tested on: A549 NSCLC
ACHN renal = tested on: ACHN renal
BT-549 breast = tested on: BT-549 breast
CAKI-1 renal = tested on: CAKI-1 renal
CCRF-CEM leukemia = tested on: CCRF-CEM leukemia
COLO 205 colon = tested on: COLO 205 colon
DU-145 prostate = tested on: DU-145 prostate
EKVX NSCLC = tested on: EKVX NSCLC
HCC-2998 colon = tested on: HCC-2998 colon
HCT-116 colon = tested on: HCT-116 colon
HCT-15 colon = tested on: HCT-15 colon
HL-60(TB) leukemia = tested on: HL-60(TB) leukemia
HOP-62 NSCLC = tested on: HOP-62 NSCLC
HOP-92 NSCLC = tested on: HOP-92 NSCLC
HS 578T breast = tested on: HS 578T breast
HT29 colon = tested on: HT29 colon
IGROV1 ovarian = tested on: IGROV1 ovarian
K-562 leukemia = tested on: K-562 leukemia
KM12 colon = tested on: KM12 colon
LOX IMVI melanoma = tested on: LOX IMVI melanoma
M14 melanoma = tested on: M14 melanoma
MALME-3M melanoma = tested on: MALME-3M melanoma
MCF7 breast = tested on: MCF7 breast
MDA-MB-231 breast = tested on: MDA-MB-231 breast
MDA-MB-435 melanoma = tested on: MDA-MB-435 melanoma
MDA-MB-468 breast = tested on: MDA-MB-468 breast
MOLT-4 leukemia = tested on: MOLT-4 leukemia
NCI-H226 lung = tested on: NCI-H226 lung
NCI-H23 lung = tested on: NCI-H23 lung
NCI-H322M lung = tested on: NCI-H322M lung
NCI-H460 NSCLC = tested on: NCI-H460 NSCLC
NCI-H522 lung = tested on: NCI-H522 lung
NCI/ADR-RES ovarian = tested on: NCI/ADR-RES ovarian
OVCAR-3 ovarian = tested on: OVCAR-3 ovarian
OVCAR-4 ovarian = tested on: OVCAR-4 ovarian
OVCAR-5 ovarian = tested on: OVCAR-5 ovarian
PC-3 prostate = tested on: PC-3 prostate
RPMI-8226 leukemia = tested on: RPMI-8226 leukemia
RXF 393 renal = tested on: RXF 393 renal
SF-268 CNS = tested on: SF-268 CNS
SF-295 CNS = tested on: SF-295 CNS
SF-539 CNS = tested on: SF-539 CNS
SK-MEL-2 melanoma = tested on: SK-MEL-2 melanoma
SK-MEL-28 melanoma = tested on: SK-MEL-28 melanoma
SK-MEL-5 melanoma = tested on: SK-MEL-5 melanoma
SK-OV-3 ovarian = tested on: SK-OV-3 ovarian
SN12C renal = tested on: SN12C renal
SNB-19 CNS = tested on: SNB-19 CNS
SNB-75 CNS = tested on: SNB-75 CNS
SR leukemia = tested on: SR leukemia
SW-620 colon = tested on: SW-620 colon
T-47D breast = tested on: T-47D breast
TK-10 renal = tested on: TK-10 renal
U251 glioblastoma = tested on: U251 glioblastoma
UACC-257 melanoma = tested on: UACC-257 melanoma
UACC-62 melanoma = tested on: UACC-62 melanoma
UO-31 renal = tested on: UO-31 renal

CC1Cc2ccccc2N1C(=O)Cc1nc(N2CCOCC2)cc(=O)[nH]1 (stereo not drawn)
25.4 µM and 40.2 µM: TGI (SNB-75 CNS)
> 100 µM: TGI (786-0 renal) | TGI (A549 NSCLC) | TGI (ACHN renal) | TGI (CAKI-1 renal) | TGI (CCRF-CEM leukemia) | TGI (COLO 205 colon) | TGI (DU-145 prostate) | TGI (HCT-116 colon) | TGI (HCT-15 colon) | TGI (HOP-62 NSCLC) | TGI (HOP-92 NSCLC) | TGI (K-562 leukemia) | TGI (M14 melanoma) | TGI (MCF7 breast) | TGI (MDA-MB-231 breast) | TGI (MDA-MB-435 melanoma) | TGI (NCI-H226 lung) | TGI (NCI-H23 lung) | TGI (NCI-H460 NSCLC) | TGI (NCI-H522 lung) | TGI (NCI/ADR-RES ovarian) | TGI (OVCAR-4 ovarian) | TGI (OVCAR-5 ovarian) | TGI (PC-3 prostate) | TGI (SF-268 CNS) | TGI (SF-295 CNS) | TGI (SF-539 CNS) | TGI (SK-MEL-2 melanoma) | TGI (SK-MEL-28 melanoma) | TGI (SK-MEL-5 melanoma) | TGI (SK-OV-3 ovarian) | TGI (SN12C renal) | TGI (SNB-19 CNS) | TGI (SW-620 colon) | TGI (TK-10 renal) | TGI (U251 glioblastoma) | TGI (UACC-257 melanoma) | TGI (UACC-62 melanoma)
24.7 µM and > 100 µM: TGI (HL-60(TB) leukemia)
65 µM and 75.2 µM: TGI (T-47D breast)
17.7 µM and 65.7 µM: TGI (MDA-MB-468 breast)
24.6 µM and > 100 µM: TGI (OVCAR-3 ovarian)
23.1 µM and 58.3 µM: TGI (HS 578T breast)
45.6 µM and > 100 µM: TGI (BT-549 breast)
99.7 µM and > 100 µM: TGI (NCI-H322M lung)
29.7 µM and > 100 µM: TGI (HT29 colon)
inactive: GI50 ([…]-0 renal) 3.31 µM and 17.8 µM | GI50 (A549 NSCLC) 16.2 µM and 32.4 µM | GI50 (ACHN renal) 5.56 µM and 17.4 µM | GI50 (BT-549 breast) 2.46 µM and 11.6 µM | GI50 (CAKI-1 renal) 4.84 µM and 12.7 µM | GI50 (CCRF-CEM leukemia) 23.1 µM and 61.7 µM | GI50 (COLO 205 colon) 53.8 µM and > 100 µM | GI50 (DU-145 prostate) 14.2 µM and 34.2 µM | GI50 (EKVX NSCLC) 5.5 µM and 15.9 µM | GI50 (HCC-2998 colon) 4.86 µM and 33 µM | GI50 (HCT-116 colon) 16.3 µM and 52.1 µM | GI50 (HCT-15 colon) 24.1 µM and 37.9 µM | GI50 (HL-60(TB) leukemia) 3.35 µM and 10.3 µM | GI50 (HOP-62 NSCLC) 20.6 µM and 33.5 µM | GI50 (HOP-92 NSCLC) 8.04 µM and 25.3 µM | GI50 (HS 578T breast) 3.8 µM and 13.4 µM | GI50 (HT29 colon) 9.87 µM and 49.4 µM | GI50 (IGROV1 ovarian) 1.72 µM and 7.93 µM | GI50 (K-562 leukemia) 37.8 µM and 78.3 µM | GI50 (KM12 colon) 13.5 µM and 72 µM | GI50 (LOX IMVI melanoma) 14.5 µM and 50.9 µM | GI50 (M14 melanoma) > 100 µM and 71 µM | GI50 (MALME-3M melanoma) 14.3 µM and 23.3 µM | GI50 (MCF7 breast) 3.23 µM and 14.9 µM | GI50 (MDA-MB-231 breast) 22.5 µM and 51.2 µM | GI50 (MDA-MB-435 melanoma) > 100 µM and 85.3 µM | GI50 (MDA-MB-468 breast) 3.31 µM and 15.1 µM | GI50 (MOLT-4 leukemia) 4.69 µM and 15 µM | GI50 (NCI-H226 lung) 63.2 µM and 65.3 µM | GI50 (NCI-H23 lung) 37.6 µM and > 100 µM | GI50 (NCI-H322M lung) 12.5 µM and 38.2 µM | GI50 (NCI-H460 NSCLC) 8.38 µM and 29.9 µM | GI50 (NCI-H522 lung) 25.2 µM and 57.7 µM | GI50 (NCI/ADR-RES ovarian) > 100 µM | GI50 (OVCAR-3 ovarian) 2.41 µM and 8.56 µM | GI50 (OVCAR-4 ovarian) > 100 µM and 74.9 µM | GI50 (OVCAR-5 ovarian) 18.9 µM and 58.3 µM | GI50 (PC-3 prostate) 1.86 µM and 4.92 µM | GI50 (RPMI-8226 leukemia) 11.8 µM and 36.3 µM | GI50 (SF-268 CNS) 18.5 µM and 49.8 µM | GI50 (SF-295 CNS) 5.17 µM and 17.9 µM | GI50 (SF-539 CNS) 22.4 µM and 59.7 µM | GI50 (SK-MEL-2 melanoma) 63.2 µM and > 100 µM | GI50 (SK-MEL-28 melanoma) 6.88 µM and 26.8 µM | GI50 (SK-MEL-5 melanoma) 20.2 µM and 33.2 µM | GI50 (SK-OV-3 ovarian) 8.17 µM and 16.2 µM | GI50 (SN12C renal) 4.74 µM and 22.6 µM | GI50 (SNB-19 CNS) > 100 µM | GI50 (SNB-75 CNS) 0.561 µM and 3.1 µM | GI50 (SR leukemia) 14.3 µM and 21.4 µM | GI50 (SW-620 colon) 64.3 µM and > 100 µM | GI50 (T-47D breast) 3.31 µM and 11.2 µM | GI50 (TK-10 renal) 7.25 µM and 25.3 µM | GI50 (U251 glioblastoma) 67.8 µM and > 100 µM | GI50 (UACC-257 melanoma) 47.9 µM and > 100 µM | GI50 (UACC-62 melanoma) 9.61 µM and 32.7 µM | GI50 (UO-31 renal) 4.59 µM and 14 µM
38.9 µM and 98.9 µM: TGI (EKVX NSCLC)
> 100 µM and 45.6 µM: TGI (UO-31 renal)
7.96 µM and 32.8 µM: TGI (IGROV1 ovarian)
75.2 µM and > 100 µM: TGI (HCC-2998 colon)
2.47 µM and 7.74 µM: TGI (A498 renal)
97.1 µM and > 100 µM: TGI (MALME-3M melanoma)
34.4 µM and > 100 µM: TGI (KM12 colon)
20.4 µM and 41 µM: TGI (MOLT-4 leukemia)
28.4 µM and 62.9 µM: TGI (SR leukemia)
42.4 µM and > 100 µM: TGI (LOX IMVI melanoma)
24.9 µM and > 100 µM: TGI (RPMI-8226 leukemia)
0.286 µM and 1.34 µM: GI50 (A498 renal)
0.266 µM and 1.16 µM: GI50 (RXF 393 renal)
3.44 µM and 15 µM: TGI (RXF 393 renal)

From PubChem BioAssay (NCI)
